Experiments:
Type in all cases: in vivo
[1] = tested on: housefly, Musca domestica; experiment: Housefly continuous exposure on treated glazed tile (paper cup arena)
Excerpt: Treatments were allowed to dry overnight. The housefly testing arena consisted of a 16 oz. paper cup where the bottom of the cup was removed and replaced with a piece of standard window screen. Ten adult houseflies (mixed ratio) were placed in each cup and covered with a 4″×5″ index card to prevent escape. Houseflies were continuously exposed to the treatment by inverting the testing arena and sliding the cup from the index card to the treated tile surface. Treatments were replicated a minimum of three times.

[2] = tested on: Culex quinquefasciatus mosquito; experiment: USDA Petri Dish Method, 3 min exposure to treated glazed tile (twenty 4-6 day old females); settings: Table 50, fipronil/adjuvant in acetone, glazed tile, 3 min exposure
Procedure, shortened: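 Twenty 4-6 day old female Culex quinquefasciatus exposed 3 minutes to overnight-dried acetone-applied treatment, then moved to untreated card; at least three replicates. Knockdown scored at intervals over 1–3 hours, sucrose provided, mortality at 24 hours.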

Aedes aegypti mosquito = experiment: USDA Petri Dish Method, 3 min exposure to dipped fiberglass window screen
Experimental: MATERIALS AND METHODS: Aqueous solutions of 1% deltamethrin with and without an adjuvant composition, which is sold under the tradename Suspend® SC. […] Pre-cut fiberglass screen (5″×5″, or 161.3 cm^2) were dipped in each treatment solution and excessive solution was allowed to drain completely (see FIG. 23 a). Weight of the solution coated on the screen was then determined. The treated screen was then allowed to air-dry overnight. USDA Petri Dish Method was used as initial screening protocol (see FIG. 23 b). Twenty, 4-6 day old female Aedes aegypti were exposed to treated window screen for 3 minutes and then moved onto a clean untreated white paper index card. Treatments were replicated a minimum of three times. Mosquito knockdown was evaluated at 3 minute intervals for the first 15 minutes and then at 5 minute intervals for the remainder of an hour. A small cotton ball with sucrose solution was added on the screen top of the Petri dish as a drinking source. Mortality was evaluated at 24 hours after exposure.
MATERIALS AND METHODS: Several rates of permethrin without adjuvant were prepared using product sold under the tradename Permanone® 40 to determine an effective rate against Aedes aegypti mosquitoes. After determining an effective rate range, aqueous solutions of permethrin at 1.25, 1.0 and 0.05% AI were prepared with and without adjuvant. […] Pre-cut fiberglass screens (5″×5″ or 161.3 cm^2) were dipped in each treatment solution allowing excessive solution to drain completely. Weight of the solution coated on the screen was then determined. The treated screen was then allowed to air-dry overnight. USDA Petri Dish Method was used as initial screening protocol (see photo, right). Twenty, 4-6 day old female Aedes aegypti were exposed to treated window screen for 3 minutes and then moved to a clean untreated white paper index card. Treatments were replicated a minimum of three times. Mosquito knockdown was evaluated at 3 minute intervals for the first 15 minutes and then at 5 minute intervals for the remainder of an hour. A small cotton ball with sucrose solution was added on the screen top of the petri-dish as a drinking source. Mortality was evaluated at 24 hours after exposure.

[3] = tested on: German cockroach (Blattella germanica); experiment: Contact efficacy against cockroaches on filter papers in glass dishes
Excerpt: The objective of this study was to evaluate differences between deltamethrin and imidacloprid with and without adjuvant against cockroaches. The method for determining contact efficacy against cockroaches was the same as that in Example 107.

[4] = 0.00032% Deltamethrin in acetone
[5] = 0.0016% Deltamethrin in acetone

## CC[S+]([O-])c1c(C#N)nn(-c2c(Cl)cc(C(F)(F)F)cc2Cl)c1N (centres unmarked) [Ethiprole (1%)]
[1]; Table 58, housefly, glazed tile, continuous exposure, 3 hr
  Average % Knockdown & Mortality after 3 hr: 0%
[1]; Table 58, housefly, glazed tile, continuous exposure, 5 hr
  Average % Knockdown & Mortality after 5 hr: 0%
[1]; Table 58, housefly, glazed tile, continuous exposure, 7 hr
  Average % Knockdown & Mortality after 7 hr: 3%
[1]; Table 58, housefly, glazed tile, continuous exposure, 24 hr
  Average % Knockdown & Mortality after 24 hr: 97%
[1]; Table 58, housefly, glazed tile, continuous exposure, adjuvant = Compound A 1% + Compound B 0.5%, 1 hr
  Average % Knockdown & Mortality after 1 hr: 0%

## N#Cc1nn(-c2c(Cl)cc(C(F)(F)F)cc2Cl)c(N)c1[S+]([O-])C(F)(F)F (centres unmarked) [Fipronil (.001%)]
[2]
  Average % Knockdown & Mortality after 30 min: 0%
  Average % Knockdown & Mortality after 60 min: 0%
  Average % Knockdown & Mortality after 2 hr: 0%
  Average % Knockdown & Mortality after 3 hr: 0%
  Average % Knockdown & Mortality after 24 hr: 2%

## N#Cc1nn(-c2c(Cl)cc(C(F)(F)F)cc2Cl)c(N)c1[S+]([O-])C(F)(F)F (centres unmarked) [Fipronil (.01%)]
[2]
  Average % Knockdown & Mortality after 30 min: 0%
  Average % Knockdown & Mortality after 60 min: 0%
  Average % Knockdown & Mortality after 2 hr: 0%
  Average % Knockdown & Mortality after 3 hr: 0%
  Average % Knockdown & Mortality after 24 hr: 48%

## CC1(C)[C@H](C(=O)O[C@H](C#N)c2cccc(Oc3ccccc3)c2)[C@@H]1C=C(Br)Br [deltamethrin (1%)]
Aedes aegypti mosquito; 3 min, Table 26, aqueous deltamethrin/adjuvant, dipped screen, 3 min exposure
  Average % Knockdown & Mortality after 3 min: 0%
Aedes aegypti mosquito; 9 min, Table 26, aqueous deltamethrin/adjuvant, dipped screen, 3 min exposure
  Average % Knockdown & Mortality after 9 min: 0%
Aedes aegypti mosquito; 15 min, Table 26, aqueous deltamethrin/adjuvant, dipped screen, 3 min exposure
  Average % Knockdown & Mortality after 15 min: 0%
Aedes aegypti mosquito; 30 min, Table 26, aqueous deltamethrin/adjuvant, dipped screen, 3 min exposure
  Average % Knockdown & Mortality after 30 min: 27%
Aedes aegypti mosquito; 60 min, Table 26, aqueous deltamethrin/adjuvant, dipped screen, 3 min exposure
  Average % Knockdown & Mortality after 60 min: 84%
Aedes aegypti mosquito; 24 hr, Table 26, aqueous deltamethrin/adjuvant, dipped screen, 3 min exposure
  Average % Knockdown & Mortality after 24 hr: 100%

## CC1(C)[C@H](C(=O)O[C@H](C#N)c2cccc(Oc3ccccc3)c2)[C@@H]1C=C(Br)Br [deltamethrin]
[3]; [4]
  % Mortality after 15′: 0%
  % Mortality after 30′: 0%
  % Mortality after 1 h: 0%
  % Mortality after 2 h: 20%
  % Mortality after 4 h: 20%
  % Mortality after 6 h: 20%
  % Mortality after 1 d: 100%
[3]; [5]
  % Mortality after 15′: 40%
  % Mortality after 30′: 60%
  % Mortality after 1 h: 80%
  % Mortality after 2 h: 100%
  % Mortality after 4 h: 100%
  % Mortality after 6 h: 100%
  % Mortality after 1 d: 100%
Aedes aegypti mosquito; 1% deltamethrin alone, treated screen
  mortality at 24 hours after exposure: 100%
Aedes aegypti mosquito; Aedes aegypti, treated window screen
  efficacy of the substance alone (summary in words): good knockdown

## CC[S+]([O-])c1c(C#N)nn(-c2c(Cl)cc(C(F)(F)F)cc2Cl)c1N (centres unmarked) [ethiprole]
[1]; ethiprole 0.01% with or without adjuvant (FIG. 52)
  mortality after about 6 hours: about 6%

## O=[N+]([O-])NC1=NCCN1Cc1ccc(Cl)nc1 [imidacloprid]
[3]; 0.04% Imidacloprid in acetone
  % Mortality after 15′: 0%
  % Mortality after 30′: 0%
  % Mortality after 1 h: 0%
  % Mortality after 2 h: 0%
  % Mortality after 4 h: 0%
  % Mortality after 6 h: 0%
  % Mortality after 1 d: 0%
[3]; 0.2% Imidacloprid in acetone
  % Mortality after 15′: 0%
  % Mortality after 30′: 0%
  % Mortality after 1 h: 0%
  % Mortality after 2 h: 0%
  % Mortality after 4 h: 0%
  % Mortality after 6 h: 0%
  % Mortality after 1 d: 0%
[3]; filter papers in glass dishes
  efficacy with adjuvant compared with insecticide alone (summary in words): no mortality was observed, with or without adjuvant

Source: patent US9028856B2, “Synergistic pesticide compositions” (priority 2008, dated 2015)
